Test results reported in PubChem BioAssay AID248 (DTP/NCI, 2004).
“And” between values parts separate entries of the source, which are not always exact repeats. Identical values can stand only once. Inconclusive results and toxic doses are left out.

Tested on: L1210 leukemia ip in BDF1 mice, survival T/C
Experiment: NCI In Vivo Anticancer Drug Screen. Data for tumor model L1210 Leukemia (intraperitoneal) in B6D2F1 (BDF1) mice
Settings: endpoint: mean survival time, higher = longer survival
Summary of the method: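 Each compound was tested against a transplantable tumor grown in mice. The endpoint was survival, with treated animals benchmarked against vehicle controls as a simple ratio.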

[1] = dose: 50.0 mg/kg/injection, schedule: Q01DX001 (ip), vehicle: saline
[2] = dose: 100.0 mg/kg/injection, schedule: Q01DX001 (ip), vehicle: saline
[3] = dose: 200.0 mg/kg/injection, schedule: Q01DX001 (ip), vehicle: saline
[4] = dose: 400.0 mg/kg/injection, schedule: Q01DX001 (ip), vehicle: saline
[5] = dose: 100.0 mg/kg/injection, schedule: Q04DX003 (ip), vehicle: saline with Tween-80
[6] = dose: 200.0 mg/kg/injection, schedule: Q04DX003 (ip), vehicle: saline with Tween-80
[7] = dose: 400.0 mg/kg/injection, schedule: Q04DX003 (ip), vehicle: saline with Tween-80
[8] = dose: 100.0 mg/kg/injection, schedule: Q04DX003 (ip), vehicle: Klucel (hydroxypropylcellulose) (HPC)
[9] = dose: 200.0 mg/kg/injection, schedule: Q04DX003 (ip), vehicle: Klucel (hydroxypropylcellulose) (HPC)
[10] = dose: 400.0 mg/kg/injection, schedule: Q04DX003 (ip), vehicle: Klucel (hydroxypropylcellulose) (HPC)
[11] = dose: 100.0 mg/kg/injection, schedule: Q01DX001 (ip), vehicle: carboxymethylcellulose (CMC)
[12] = dose: 200.0 mg/kg/injection, schedule: Q01DX001 (ip), vehicle: carboxymethylcellulose (CMC)
[13] = dose: 400.0 mg/kg/injection, schedule: Q01DX001 (ip), vehicle: carboxymethylcellulose (CMC)

CC[C@@]1(O)C(=O)OCc2c1cc1n(c2=O)Cc2cc3ccccc3[n+]([O-])c2-1 was tested, and the T/C (dose: 1.0 mg/kg/injection, schedule: Q01DX015 (ip), vehicle: saline) was 112 % of control, the T/C (dose: 8.0 mg/kg/injection, schedule: Q01DX015 (ip), vehicle: saline) was 86 % of control and the T/C (dose: 12.5 mg/kg/injection, schedule: Q01DX001 (ip), vehicle: saline) was 115 % of control.

With CCCCC(C=NCC(CCCC)(CCN(C)C)c1cccc2ccccc12)(CCN(C)C)c1cccc2ccccc12 (stereo unspecified) the T/C (dose: 6.25 mg/kg/injection, schedule: Q04DX002 (ip), vehicle: Klucel (hydroxypropylcellulose) (HPC)) was 89 % of control, the T/C (dose: 12.5 mg/kg/injection, schedule: Q04DX002 (ip), vehicle: Klucel (hydroxypropylcellulose) (HPC)) was 89 % of control and the T/C (dose: 25.0 mg/kg/injection, schedule: Q04DX002 (ip), vehicle: Klucel (hydroxypropylcellulose) (HPC)) was 92 % of control.

CC1CCCCN1C(CC(=O)c1ccccc1)C(=O)c1ccccc1 (stereo unspecified) was tested, and the T/C [1] was 97 % of control, the T/C [2] was 95 % of control and the T/C [3] was 101 % of control. The T/C [4] was 101 % of control.

With CCCCCCC1CC1 the T/C (dose: 50.0 mg/kg/injection, schedule: Q01DX009 (ip), vehicle: saline) was 94 % of control, the T/C (dose: 100.0 mg/kg/injection, schedule: Q01DX009 (ip), vehicle: saline) was 102 % of control and the T/C (dose: 200.0 mg/kg/injection, schedule: Q01DX009 (ip), vehicle: saline) was 102 % of control.

Nc1ccc(S(=O)(=O)Nc2ccc(C(=O)O)cc2)cc1 was tested, and the T/C [5] was 98 % of control, the T/C [6] was 98 % of control and the T/C [7] was 98 % of control.

O=C(O)c1[nH]c(=O)[nH]c(=O)c1N1CCCCC1 was tested, and the T/C (dose: 12.0 mg/kg/injection, schedule: Q01DX001 (ip), vehicle: saline) was 106 % of control, the T/C (dose: 25.0 mg/kg/injection, schedule: Q01DX001 (ip), vehicle: saline) was 101 % of control and the T/C (dose: 25.0 mg/kg/injection, schedule: Q01DX009 (ip), vehicle: Klucel (hydroxypropylcellulose) (HPC)) was 105 % of control. For the same compound, the T/C (dose: 50.0 mg/kg/injection, schedule: Q01DX009 (ip), vehicle: Klucel (hydroxypropylcellulose) (HPC)) was 92 % of control.

With COC1OC(COC(C)=O)C(OC(C)=O)C(OC(C)=O)[CH]1[Hg][S]c1ccccc1 (stereo unspecified) the T/C (dose: 1.0 mg/kg/injection, schedule: Q01DX015 (ip), vehicle: carboxymethylcellulose (CMC)) was 105 % of control, the T/C (dose: 2.0 mg/kg/injection, schedule: Q01DX015 (ip), vehicle: carboxymethylcellulose (CMC)) was 98 % of control and the T/C (dose: 4.0 mg/kg/injection, schedule: Q01DX015 (ip), vehicle: carboxymethylcellulose (CMC)) was 100 % of control. For the same compound, the T/C (dose: 8.0 mg/kg/injection, schedule: Q01DX015 (ip), vehicle: carboxymethylcellulose (CMC)) was 94 % of control and 86 % of control and the T/C (dose: 16.0 mg/kg/injection, schedule: Q01DX015 (ip), vehicle: carboxymethylcellulose (CMC)) was 109 % of control.

In the case of O=C(Nc1cc(C(F)(F)F)cc(C(F)(F)F)c1)Nc1ccccc1C(F)(F)F, the T/C (dose: 100.0 mg/kg/injection, schedule: Q01DX009 (ip), vehicle: Klucel (hydroxypropylcellulose) (HPC)) is reported as 98 % of control, the T/C (dose: 200.0 mg/kg/injection, schedule: Q01DX009 (ip), vehicle: Klucel (hydroxypropylcellulose) (HPC)) is reported as 102 % of control and the T/C (dose: 400.0 mg/kg/injection, schedule: Q01DX009 (ip), vehicle: Klucel (hydroxypropylcellulose) (HPC)) is reported as 90 % of control.

For OCC1(CO)COC2(CCCCC2)OC1, the T/C [8] was 89 % of control, the T/C [9] was 91 % of control and the T/C [10] was 91 % of control.

Cc1cccc(N2C(N)=NC(N)=NC2(C)C)c1 was tested, and the T/C (dose: 25.0 mg/kg/injection, schedule: Q04DX003 (ip), vehicle: Klucel (hydroxypropylcellulose) (HPC)) was 103 % of control, the T/C (dose: 50.0 mg/kg/injection, schedule: Q04DX003 (ip), vehicle: Klucel (hydroxypropylcellulose) (HPC)) was 124 % of control and the T/C (dose: 75.0 mg/kg/injection, schedule: Q01DX001 (ip), vehicle: saline) was 101 % of control.

O=C(Nc1ccc(Cl)c(Cl)c1)OCCN(c1ccccc1)c1ccccc1 was tested, and the T/C [11] was 88 % of control, the T/C [12] was 97 % of control and the T/C [13] was 92 % of control.

In the case of CCC(O)(C1=NC(C)(C)CO1)c1ccncc1Br (stereo unspecified), the T/C (dose: 100.0 mg/kg/injection, schedule: Q01DX001 (ip), vehicle: Klucel (hydroxypropylcellulose) (HPC)) is reported as 100 % of control, the T/C (dose: 200.0 mg/kg/injection, schedule: Q01DX001 (ip), vehicle: Klucel (hydroxypropylcellulose) (HPC)) is reported as 94 % of control and the T/C (dose: 400.0 mg/kg/injection, schedule: Q01DX001 (ip), vehicle: Klucel (hydroxypropylcellulose) (HPC)) is reported as 97 % of control.

With Nc1nc(SCc2ccccn2)c2[nH]cnc2n1 the T/C (dose: 45.0 mg/kg/injection, schedule: Q04DX003 (ip), vehicle: Klucel (hydroxypropylcellulose) (HPC)) was 121 % of control, the T/C (dose: 65.0 mg/kg/injection, schedule: Q04DX003 (ip), vehicle: Klucel (hydroxypropylcellulose) (HPC)) was 124 % of control and the T/C [10] was 155 % of control.

Nc1nc(N)c2nc(CNc3ccc(C(=O)NC(CCC(=O)O)C(=O)O)nc3)cnc2n1 (stereo unspecified) was tested, and the T/C (dose: 0.44 mg/kg/injection, schedule: Q01DX009 (ip), vehicle: Klucel (hydroxypropylcellulose) (HPC)) was 169 % of control, the T/C (dose: 0.66 mg/kg/injection, schedule: Q01DX009 (ip), vehicle: Klucel (hydroxypropylcellulose) (HPC)) was 168 % of control and the T/C (dose: 75.0 micrograms/kg/injection, schedule: Q01DX009 (ip), vehicle: Klucel (hydroxypropylcellulose) (HPC)) was 119 % of control. The T/C (dose: 100.0 micrograms/kg/injection, schedule: Q01DX009 (ip), vehicle: Klucel (hydroxypropylcellulose) (HPC)) was 150 % of control, the T/C (dose: 150.0 micrograms/kg/injection, schedule: Q01DX009 (ip), vehicle: Klucel (hydroxypropylcellulose) (HPC)) was 156 % of control and 160 % of control and the T/C (dose: 220.0 micrograms/kg/injection, schedule: Q01DX009 (ip), vehicle: Klucel (hydroxypropylcellulose) (HPC)) was 161 % of control. For the same compound, the T/C (dose: 600.0 micrograms/kg/injection, schedule: Q01DX009 (ip), vehicle: Klucel (hydroxypropylcellulose) (HPC)) was 102 % of control.

In the case of Cc1[nH]c(=O)[nH]c(=O)c1CCO, the T/C [2] is reported as 96 % of control, the T/C [3] is reported as 102 % of control and the T/C [4] is reported as 100 % of control.

CCSC(=O)Nc1cccc(O)c1 was tested, and the T/C (dose: 100.0 mg/kg/injection, schedule: Q01DX001 (ip), vehicle: saline + alcohol) was 94 % of control, the T/C (dose: 200.0 mg/kg/injection, schedule: Q01DX001 (ip), vehicle: saline + alcohol) was 94 % of control and the T/C (dose: 400.0 mg/kg/injection, schedule: Q01DX001 (ip), vehicle: saline + alcohol) was 93 % of control.

In the case of Cc1ccc(-c2c([N+](=O)[O-])ccc(Cl)c2[N+](=O)[O-])cc1, the T/C (dose: 50.0 mg/kg/injection, schedule: Q01DX001 (ip), vehicle: carboxymethylcellulose (CMC)) is reported as 102 % of control, the T/C [11] is reported as 105 % of control and the T/C [12] is reported as 102 % of control. The T/C [13] was 100 % of control.

For COc1cc2ccnc(Cc3ccccc3)c2cc1OC, the T/C (dose: 50.0 mg/kg/injection, schedule: Q01DX009 (ip), vehicle: saline with Tween-80) was 103 % of control, the T/C (dose: 100.0 mg/kg/injection, schedule: Q01DX009 (ip), vehicle: saline with Tween-80) was 93 % of control and 94 % of control and the T/C [5] was 102 % of control. For the same compound, the T/C (dose: 200.0 mg/kg/injection, schedule: Q01DX009 (ip), vehicle: saline with Tween-80) was 88 % of control and the T/C [6] was 100 % of control.

For CC(C)CCCC(=O)O, the T/C [2] was 97 % of control, the T/C [3] was 100 % of control and the T/C [4] was 89 % of control.

In the case of COc1ccc(C(=O)c2no[n+]([O-])c2C(=O)c2ccc(OC)cc2)cc1, the T/C [5] is reported as 90 % of control and the T/C [6] is reported as 94 % of control.

CN(C)S(=O)(=O)c1ccc(NC(=O)OC(c2ccccc2)c2ccccc2)cc1 was tested, and the T/C [2] was 91 % of control, the T/C [3] was 102 % of control and the T/C [4] was 91 % of control.

For CC1(C)CC(=O)C2=C(C1)Nc1ccccc1NC2c1ccc([N+](=O)[O-])cc1 (stereo unspecified), the T/C (dose: 100.0 mg/kg/injection, schedule: Q04DX002 (ip), vehicle: Klucel (hydroxypropylcellulose) (HPC)) was 103 % of control, the T/C (dose: 200.0 mg/kg/injection, schedule: Q04DX002 (ip), vehicle: Klucel (hydroxypropylcellulose) (HPC)) was 109 % of control and the T/C (dose: 400.0 mg/kg/injection, schedule: Q04DX002 (ip), vehicle: Klucel (hydroxypropylcellulose) (HPC)) was 106 % of control.

With CCN(CC)CCSSCCN(CC)CC the T/C [1] was 88 % of control and the T/C [2] was 96 % of control.

With Clc1ccc(SSc2ccc(Cl)cc2)cc1 the T/C [5] was 102 % of control, the T/C [6] was 94 % of control and the T/C [7] was 98 % of control.

With O=C(Cl)/C=C/c1c(Cl)cccc1Cl the T/C (dose: 75.0 mg/kg/injection, schedule: Q01DX009 (ip), vehicle: Klucel (hydroxypropylcellulose) (HPC)) was 102 % of control, the T/C [8] was 103 % of control and the T/C (dose: 150.0 mg/kg/injection, schedule: Q01DX009 (ip), vehicle: Klucel (hydroxypropylcellulose) (HPC)) was 100 % of control. The T/C [9] was 92 % of control and the T/C (dose: 300.0 mg/kg/injection, schedule: Q01DX009 (ip), vehicle: Klucel (hydroxypropylcellulose) (HPC)) was 93 % of control.
